The results in this text go back to patent publication US11414431B2, “Substituted pyrazolo[1,5-a]pyrimidines as TYK2 inhibitors” (Nimbus Lakshmi, Inc., priority 2018, dated 2022).

In the test the target is human TYK2 (JH2domain-pseudokinase) (Homo sapiens (Human), UniProt P29597). The test is described as follows: TYK2 JH2 Domain Binding Assay (KINOMEscan). To be noted: 11-point 3-fold dilution, top concentration 30,000 nM, duplicate; read-out: hTYK2_JH2_Binding (Kd; nM). As for the experimental part:
Binding constants for compounds of the present invention against the JH2 domain were determined by the following protocol for a KINOMEscan® assay (DiscoveRx). A fusion protein of a partial length construct of human TYK2 (JH2domain-pseudokinase) (amino acids G556 to D888 based on reference sequence NP_003322.3) and the DNA binding domain of NFkB was expressed in transiently transfected HEK293 cells. From these HEK 293 cells, extracts were prepared in M-PER extraction buffer (Pierce) in the presence of Protease Inhibitor Cocktail Complete (Roche) and Phosphatase Inhibitor Cocktail Set II (Merck) per manufacturers' instructions. The TYK2(JH2domain-pseudokinase) fusion protein was labeled with a chimeric double-stranded DNA tag containing the NFkB binding site (5′-[…]-3′) fused to an amplicon for qPCR readout, which was added directly to the expression extract (the final concentration of DNA-tag in the binding reaction is 0.1 nM).
The liganded beads were blocked with excess biotin and washed with blocking buffer (SeaBlock (Pierce), 1% BSA, 0.05% Tween 20, 1 mM DTT) to remove unbound ligand and to reduce nonspecific binding.
Extracts were loaded with DNA-tag and diluted into the binding reaction in a two step process. First extracts were diluted 1:100 in 1× binding buffer (PBS/0.05% Tween 20/10 mM DTT/0.1% BSA/2 μg/ml sonicated salmon sperm DNA) containing 10 nM DNA-tag. This dilution was allowed to equilibrate at room temperature for 15 minutes and then subsequently diluted 1:100 in 1× binding buffer. […] Kds were determined using an 11-point 3-fold compound dilution series with three DMSO control points. […] The compounds were then diluted directly into the assays such that the final concentration of DMSO was 0.9%. All reactions performed in polypropylene 384-well plates. Each was a final volume of 0.02 mL. Assays were incubated with shaking for 1 hour at room temperature. Then the beads were pelleted and washed with wash buffer (lx PBS, 0.05% Tween 20) to remove displaced kinase and test compound. […] The qPCR protocol consisted of a 10 minute hot start at 95° C., followed by 35 cycles of 95° C. for 15 seconds, 60° C. for 1 minute.
Kds were determined using an 11-point 3-fold compound dilution series with three DMSO control points. […] The compounds were then diluted directly into the assays such that the final concentration of DMSO was 0.9%. The Kds were determined using a compound top concentration of 30,000 nM. Kd measurements were performed in duplicate.
Binding constants (Kds) were calculated with a standard dose-response curve using the Hill equation: […]
The Hill Slope was set to −1.

human TYK2 (JH2domain-pseudokinase), sequence (P29597 556-888): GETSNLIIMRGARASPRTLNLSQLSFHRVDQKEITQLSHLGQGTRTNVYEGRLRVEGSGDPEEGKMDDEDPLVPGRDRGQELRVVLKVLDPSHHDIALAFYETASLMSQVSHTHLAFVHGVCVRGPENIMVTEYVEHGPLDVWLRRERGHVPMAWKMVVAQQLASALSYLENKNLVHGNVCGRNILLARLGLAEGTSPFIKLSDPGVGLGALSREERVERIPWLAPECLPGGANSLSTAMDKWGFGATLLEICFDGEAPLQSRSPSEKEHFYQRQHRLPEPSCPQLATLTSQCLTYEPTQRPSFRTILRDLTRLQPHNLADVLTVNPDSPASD

As a reminder, the Kd is the concentration at which binding is half-saturated. For the molecule `CNc1cc(Nc2cccn([C@H]3C[C@@H]3F)c2=O)nc2c(C(=O)N[C@@H]3CC[C@H]3OC)cnn12` [Compound I-50, 5-((1-((1S,2S)-2-Fluorocyclopropyl)-2-oxo-1,2-dihydropyridin-3-yl)amino)-N-((1R,2R)-2-methoxycyclobutyl)-7-(methylamino)pyrazolo[1,5-a]pyrimidine-3-carboxamide], the Kd is 1 to 10 nM.

Consider `CNc1cc(Nc2cccn([C@@H]3C[C@H]3F)c2=O)nc2c(C(=O)N[C@H]3CC[C@@H]3OC)cnn12` [Compound I-52, 5-((1-((1R,2R)-2-Fluorocyclopropyl)-2-oxo-1,2-dihydropyridin-3-yl)amino)-N-((1S,2S)-2-methoxycyclobutyl)-7-(methylamino)pyrazolo[1,5-a]pyrimidine-3-carboxamide], for which the Kd lay within 0.2 to 1 nM.

Regarding `CNc1cc(-c2cn(CCN3CCOCC3)c3ncccc23)nc2c(C(=O)N[C@H]3CC[C@@H]3OC)cnn12` [Compound I-54, N-((1S,2S)-2-Methoxycyclobutyl)-7-(methylamino)-5-(1-(2-morpholinoethyl)-1H-pyrrolo[2,3-b]pyridin-3-yl)pyrazolo[1,5-a]pyrimidine-3-carboxamide], the Kd was less than 0.2 nM.

As to `CNc1cc(-c2cn(CCN3CCOCC3)c3ncccc23)nc2c(C(=O)N[C@@H]3CC[C@H]3OC)cnn12` [Compound I-55, N-((1R,2R)-2-Methoxycyclobutyl)-7-(methylamino)-5-(1-(2-morpholinoethyl)-1H-pyrrolo[2,3-b]pyridin-3-yl)pyrazolo[1,5-a]pyrimidine-3-carboxamide], the Kd was in the range of 0.2 to 1 nM.

As for `CNc1cc(-c2cn([C@H]3CCCOC3)c3ncccc23)nc2c(C(=O)N[C@H]3COC[C@H]3O)cnn12` [Compound I-60, N-((3S,4S)-4-Hydroxytetrahydrofuran-3-yl)-7-(methylamino)-5-(1-((S)-tetrahydro-2H-pyran-3-yl)-1H-pyrrolo[2,3-b]pyridin-3-yl)pyrazolo[1,5-a]pyrimidine-3-carboxamide], the Kd is less than 0.2 nM.

As to `CNc1cc(-c2cn([C@H]3CCCOC3)c3ncccc23)nc2c(C(=O)N[C@@H]3COC[C@@H]3O)cnn12` [Compound I-61, N-((3R,4R)-4-Hydroxytetrahydrofuran-3-yl)-7-(methylamino)-5-(1-((S)-tetrahydro-2H-pyran-3-yl)-1H-pyrrolo[2,3-b]pyridin-3-yl)pyrazolo[1,5-a]pyrimidine-3-carboxamide], the equilibrium dissociation constant (Kd) was in the range of 1 to 10 nM.

Turning to `CNc1cc(-c2cn(C3CCOCC3)c3ncccc23)nc2c(C(=O)N[C@H]3CCC[C@H](O)C3)cnn12` [Compound I-65, N-((1S,3S)-3-Hydroxycyclohexyl)-7-(methylamino)-5-(1-(tetrahydro-2H-pyran-4-yl)-1H-pyrrolo[2,3-b]pyridin-3-yl)pyrazolo[1,5-a]pyrimidine-3-carboxamide], the Kd is less than 0.2 nM.

In the case of `CNc1cc(Nc2cccn(C3CC(F)(F)C3)c2=O)nc2c(C(=O)N[C@@H]3CC[C@@H](OC)C3)cnn12` [Compound I-72, 5-((1-(3,3-Difluorocyclobutyl)-2-oxo-1,2-dihydropyridin-3-yl)amino)-N-((1R,3R)-3-methoxycyclopentyl)-7-(methylamino)pyrazolo[1,5-a]pyrimidine-3-carboxamide], the Kd was in the range of 1 to 10 nM.

As for `CNc1cc(Nc2cccn(C3CC(F)(F)C3)c2=O)nc2c(C(=O)N[C@H]3CC[C@H](OC)C3)cnn12` [Compound I-73, 5-((1-(3,3-Difluorocyclobutyl)-2-oxo-1,2-dihydropyridin-3-yl)amino)-N-((1S,3S)-3-methoxycyclopentyl)-7-(methylamino)pyrazolo[1,5-a]pyrimidine-3-carboxamide], the Kd lay in the range of 1 to 10 nM.

On to `CNc1cc(Nc2cccn([C@@H]3CCC[C@@H]3O)c2=O)nc2c(C(=O)N[C@@H]3CC[C@@H](OC)C3)cnn12` [Compound I-78, 5-((1-((1R,2S)-2-Hydroxycyclopentyl)-2-oxo-1,2-dihydropyridin-3-yl)amino)-N-((1R,3R)-3-methoxycyclopentyl)-7-(methylamino)pyrazolo[1,5-a]pyrimidine-3-carboxamide], for which the Kd fell in the range of 0.2 to 1 nM.

As for `CNc1cc(Nc2cccn([C@@H]3CCC[C@@H]3O)c2=O)nc2c(C(=O)N[C@H]3CC[C@H](OC)C3)cnn12` [Compound I-79, 5-((1-((1R,2S)-2-Hydroxycyclopentyl)-2-oxo-1,2-dihydropyridin-3-yl)amino)-N-((1S,3S)-3-methoxycyclopentyl)-7-(methylamino)pyrazolo[1,5-a]pyrimidine-3-carboxamide], the Kd was in the range of 0.2 to 1 nM.

Regarding `CNc1cc(Nc2cccn([C@@H]3CC[C@@H]3O)c2=O)nc2c(C(=O)N[C@H]3CC[C@H](OC)C3)cnn12` [Compound I-82, 5-((1-((1R,2S)-2-Hydroxycyclobutyl)-2-oxo-1,2-dihydropyridin-3-yl)amino)-N-((1S,3S)-3-methoxycyclopentyl)-7-(methylamino)pyrazolo[1,5-a]pyrimidine-3-carboxamide], the Kd is more than 10 nM.

Take `CNc1cc(Nc2cccn(-c3ncco3)c2=O)nc2c(C(=O)N[C@@H]3CC[C@@H](OC)C3)cnn12` [Compound I-83, N-((1R,3R)-3-Methoxycyclopentyl)-7-(methylamino)-5-((1-(oxazol-2-yl)-2-oxo-1,2-dihydropyridin-3-yl)amino)pyrazolo[1,5-a]pyrimidine-3-carboxamide]: the Kd is 0.2 to 1 nM.

Turning to `CNc1cc(Nc2cccn(-c3ncco3)c2=O)nc2c(C(=O)N[C@H]3CC[C@H](OC)C3)cnn12` [Compound I-84, N-((1S,3S)-3-Methoxycyclopentyl)-7-(methylamino)-5-((1-(oxazol-2-yl)-2-oxo-1,2-dihydropyridin-3-yl)amino)pyrazolo[1,5-a]pyrimidine-3-carboxamide], the Kd is 0.2 to 1 nM.

Take `CNc1cc(Nc2cccn([C@H]3CC[C@H]3O)c2=O)nc2c(C(=O)N[C@@H]3CC[C@@H](OC)C3)cnn12` [Compound I-85, 5-((1-((1S,2R)-2-Hydroxycyclobutyl)-2-oxo-1,2-dihydropyridin-3-yl)amino)-N-((1R,3R)-3-methoxycyclopentyl)-7-(methylamino)pyrazolo[1,5-a]pyrimidine-3-carboxamide]: the Kd fell in the range of 1 to 10 nM.

Regarding `CNc1cc(Nc2cccn([C@H]3CC[C@H]3O)c2=O)nc2c(C(=O)N[C@H]3CC[C@H](OC)C3)cnn12` [Compound I-86, 5-((1-((1S,2R)-2-Hydroxycyclobutyl)-2-oxo-1,2-dihydropyridin-3-yl)amino)-N-((1S,3S)-3-methoxycyclopentyl)-7-(methylamino)pyrazolo[1,5-a]pyrimidine-3-carboxamide], the Kd is 1 to 10 nM.

With `CNc1cc(Nc2cccn([C@H]3CCC[C@H]3O)c2=O)nc2c(C(=O)N[C@@H]3CC[C@@H](OC)C3)cnn12` [Compound I-87, 5-((1-((1S,2R)-2-Hydroxycyclopentyl)-2-oxo-1,2-dihydropyridin-3-yl)amino)-N-((1R,3R)-3-methoxycyclopentyl)-7-(methylamino)pyrazolo[1,5-a]pyrimidine-3-carboxamide], the Kd was more than 10 nM.

On to `CNc1cc(Nc2cccn([C@H]3CCC[C@H]3O)c2=O)nc2c(C(=O)N[C@H]3CC[C@H](OC)C3)cnn12` [Compound I-88, 5-((1-((1S,2R)-2-Hydroxycyclopentyl)-2-oxo-1,2-dihydropyridin-3-yl)amino)-N-((1S,3S)-3-methoxycyclopentyl)-7-(methylamino)pyrazolo[1,5-a]pyrimidine-3-carboxamide], for which the Kd is more than 10 nM.
